Assays:
[1] = Peroxynitrite test (total antioxidant effect), antioxidant screening; format: biochemical; details: comparison in words of the scores of table 3
From the text: To assess and verify the effect of lignosulfonate as antioxidant several lignosulfonic samples have been tested in different antioxidant screenings. Table 3. Samples tested for antioxidant effect. Five types of lignosulfonates were investigated; sodium lignosulfonate, a desulfonated oxidized lignosulfonate, and three fractions of a sodium lignosulfonate; low, medium and high molecular weight. […] The desulfonated oxidized lignosulfonate had the best antioxidant effect compared to the sodium lignosulfonate samples. […] As a comparison the synthetic antioxidant Ethoxyquin, gave the highest score in the test.

[2] = Autoxidation of rosmarinic acid with oxygen at 65°C with/without lignosulfonate (Example 3), reversed-phase HPLC-UV 280 nm; format: physicochemical; set-up: unit not given here
From the text: The combined effect of lignosulfonate was in addition shown in autoxidation experiments using two different lignosulfonates and rosmarinic acid as a representative for a different antioxidant. […] In parallel the same concentration of antioxidant, rosmarinic acid 1%, was supplemented with lignosulfonate. The tested lignins were a sodium lignosulfonate (LS 1) and a calcium lignosulfonate (LS 2), both added in the same amounts based on dry content (17%). Samples were withdrawn daily and the amount of remaining antioxidant was chromatographically quantified. Reversed-phase HPLC with UV-detection at 280 nm was the method of choice for monitoring the positive effect of LS.

Compound	antioxidant effect [1]	Autoxidation of rosmarinic acid (amount of remaining antioxidant) ([2]; Day 0, rosmarinic acid 1%, lignosulfonate 17% dry content)	Autoxidation of rosmarinic acid (amount of remaining antioxidant) ([2]; Day 1)	Autoxidation of rosmarinic acid (amount of remaining antioxidant) ([2]; Day 2)	Autoxidation of rosmarinic acid (amount of remaining antioxidant) ([2]; Day 3)	Autoxidation of rosmarinic acid (amount of remaining antioxidant) ([2]; Day 4)	Autoxidation of rosmarinic acid (amount of remaining antioxidant) ([2]; Day 4, listed as rosmarinic acid)
Cc1cc(C(C)(C)C)c(O)c(C(C)(C)C)c1 [BHT, 2,6-di-tert-butyl-4-methylphenol]	scored lowest	–	–	–	–	–	–
CCOc1ccc2c(c1)C(C)=CC(C)(C)N2 [Ethoxyquin, 1,2-dihydro-6-etoxy-2,2,4-trimetylquinoline]	highest score	–	–	–	–	–	–
O=C(/C=C/c1ccc(O)c(O)c1)O[C@H](Cc1ccc(O)c(O)c1)C(=O)O [Rosmarinic acid]	–	100	72	45	11	2	completely degraded
